The text below walks through data of patent US11998008B2, “Pesticides and methods of controlling pests” (The State of Israel, Ministry of Agriculture & Rural …, priority 2017, dated 2024).

Molecules are shown by their SMILES.

One data set concerns A. alternata. As to the kind of experiment: Fungicidal activity assay on PDA in sealed Petri dish (growth inhibition and mortality). Type of data set: cell-based, Alternaria alternata. To be noted: Alternaria alternata, NA + number = still viable in the highest concentration tested (given as >), read-out: M - Mortality, minimal concentration that killed the fungus.
In the next data set the test system is B. cinerea. Described as above. As to conditions: Botrytis cinerea, NA + number = still viable in the highest concentration tested (given as >), read-out: M - Mortality, minimal concentration that killed the fungus. The format is cell-based, Botrytis cinerea.
In data set [1] the test system is F. oxysporum f. sp. radicis-cucumerium. The data set is described as above. The format is cell-based, Fusarium oxysporum f. sp. radicis-cucumerinum. As to conditions: Fusarium oxysporum, NA + number = still viable in the highest concentration tested (given as >), read-out: M - Mortality, minimal concentration that killed the fungus.
A further data set relates to R. solani. As to the kind of experiment: microbe, parasite or virus in culture. Type of data set: cell-based. To be noted: Rhizoctonia solani; R. solani; NA + number = still viable in the highest concentration tested (given as >); read-out: M - Mortality, minimal concentration that killed the fungus.
Another data set has as its system test fungi. As to the kind of experiment: Fungicidal activity assay on PDA, summaries over the test fungi. The format is cell-based. To be noted: over the fungi tested.
A further data set has as its system Tomato plants. Description: Phytotoxicity on tomato plants in soil, compound on perlite particles. The format is in vivo. As to conditions: one day after treatment. From the text:
In exemplary procedures, the phytotixicity of trans-2-octenal and 2-cyclopenten-1-one was examined in triplicates for each concentration: 250, 1,000, 4,000, and 20,000 ppm compared to control.

The test system of data set [2] is Sclerotium rolfsii sclerotia. As to the kind of experiment: Effect on Sclerotium rolfsii sclerotia buried in buckets. Type of data set: in vivo. On the procedure: The activity of trans-2-octenal was examined against phytopathogenic fungi and weeds. The experiment was performed in large buckets (110 L), which bottoms were removed, and therefore the loam in the bucket was continuous with the ground. The soil was inoculated one day prior the application of the compound. Soil inoculation was performed as follows: spores of Fusarium oxysporum […]-cucumerinum (FORC) were collected from culture plates and 25 mL of spore suspension at concentration of 9×10^5 was mixed with 10 L of tap water and then poured on the soil of each bucket. […] Half of the buckets were sealed with nylon while the other half remained open. Five days later, soil samples from three different depths (10, 20, and 30 cm) were taken from each bucket for fungal isolation and determination of fungal survival. […] After 3 days, the number of colonies was counted. […] Similar experiment was carried out with Sclerotium rolfsii as the phytopathogen fungus. The experiment was performed as above with the following modifications: 50 sclerotia of S. rolfsii were inserted into paper tea-bags and warped with nylon tights. Each bucket contained 9 tea-bags, 3 for each depth of 10, 20, and 30 cm. After burying the tea bags, the soil was watered with 10 L of tap water. […] Hyphal growth was detected after 2 days incubation at 25° C.

For the next data set, the system named is chlamydospores of Forl. As to the kind of experiment: Open field experiment in sandy soil. The format is in vivo, Fusarium oxysporum f sp. radicis-lycopersici. To be noted: emulsion, 54 ppm active compound, 6 days. On the procedure: (§1) In this experiment, an emulsions of trans-2-octenal (25% active compound) such as those described in Example 9 were used. The soil was inoculated with chlamydospores of Forl and sclerotia of S. rolfsii. Five gram of soil, highly inoculated with chlamydospores were wrapped in nylon tights and buried in the field at depths of 10, 30, and 50 cm. Tea bags containing 50 S. rolfsii sclerotia were prepared as described above and buried similarly. After 6 days, trans-2-octenal emulsion, at concentration of 54 ppm (active compound) was applied using the irrigation system. The same conditions were applied to a control plot except that the plot was irrigated with tap water without the compound. The plots were left open during the time of the experiment. After 6 days, the pathogens were removed from the soil and their viability was examined using PDA+tet culture plates. […] As shown in these figures, elimination of both phytopathogenic fungi occurred at the lowest depth of 10 cm.

The next data set relates to sclerotia of S. rolfsii. As to the kind of experiment: Open field experiment in sandy soil. The format is in vivo, Sclerotium rolfsii. To be noted: emulsion, 54 ppm active compound, 6 days. As for the experimental part:
as §1

Data set [3] relates to seeds of corn, cotton, and peanut. As to the kind of experiment: Phytotoxicity: seed germination in treated sandy soil in pots. To be noted: soil treated with 54 ppm, nine days. Type of data set: in vivo. On the procedure:
(§2) Sandy soil from a plot that was treated with 54 ppm of trans-2-octenal was removed to small pots in which either seeds of corn, cotton, and peanut were sown (FIGS. 16A-16C) or tomato seedlings were planted therein (FIG. 16E).

The next data set deals with tomato seedlings. As to the kind of experiment: Phytotoxicity: growth of tomato seedlings in treated sandy soil in pots. Type of data set: in vivo. As to conditions: soil treated with 54 ppm, nine days. On the procedure:
as §2

In the next data set the test system is tomato strain Abigail. Description: Field phytotoxicity in loam soil, seedlings planted one day after application. Type of data set: in vivo. To be noted: emulsion, viable seedlings counted eleven days after planting.
Data set [4] concerns lettuce seedling strain Raviv. To be noted: in vivo, 11 days.
Description: An experiment in a larger scale was performed in loam soil in which the seedling were planted directly in the treated plot. The soil was treated with 0, 25, 50, 100, 200, 400, 800, and 1,600 ppm of emulsion of trans-2-octenal. The compound was applied using the irrigation system. A day later, tomato seedling strains Ikram and Abigail and lettuce seedling strain Raviv (10 seedlings each) were planted into the treated soil of each concentration. Eleven days later, the number of viable seedlings was counted.

As for `CCCCC/C=C/C=O` [trans-2-octenal], the MFC amounted to 12.5 µg/mL with A. alternata, 50 µg/mL with B. cinerea, 6.25 µg/mL in data set [1] and 6.25 µg/mL with R. solani. In addition, the “concentrations that completely inhibited the fungi growth and killed the fungi” value with test fungi is reported as 6.25-50 ppm. Besides, the phytotoxicity result in the data set with Tomato plants (250 ppm), in the data set with Tomato plants (1,000 ppm), in the data set with Tomato plants (4,000 ppm) and in the data set on Tomato plants (20,000 ppm) was “No phytotoxicity” throughout. In data set [2] (depth 10 cm, open and close conditions, 125-250 ppm), the viability of sclerotia entry is “reduced significantly”. The “effect on viability of sclerotia” value in data set [2] (depth 30 cm, close conditions only, 250 ppm) is listed as “significant effect”. Further, the “viability of Forl chlamydospores” value in the data set on chlamydospores of Forl (30 and 50 cm depth) is on record as “No elimination”; with chlamydospores of Forl (depth 10 cm, open plot) it was “elimination”. Also, the “viability of S. rolfsii sclerotia” value is recorded as “No elimination” in the data set on sclerotia of S. rolfsii (30 and 50 cm depth); “elimination” in the data set on sclerotia of S. rolfsii (depth 10 cm, open plot). Further, in [3], the “number of seeds germinated in treated versus untreated soil” value is listed as “did not differ significantly”. In addition, the “growth of the tomato seedling in treated versus untreated soil” value in the data set on tomato seedlings is “no significant difference”. Further, the “concentration at which significant phytotoxic effect occurred” value (in the data set on tomato strain Abigail; in data set [4]) was 400 ppm throughout.
